Laboratory results reported in patent publication US9029337B2, “Modulation of factor 7 expression” (Isis Pharmaceuticals, Inc., priority 2007, dated 2015).
Strand notation (5' to 3'): a small letter for the sugar, then the base; units joined by * are phosphorothioate-linked, units joined directly phosphodiester-linked; [ ] holds rarer units or linkages, { } end groups; capitals alone tell only the bases. e = 2'-O-(2-methoxyethyl) (MOE); [5mC] = 5-methylcytosine; d = 2'-deoxy (DNA)

tested on: human Factor 7 mRNA; assay: Antisense inhibition of human Factor 7 mRNA in HepB3 cells, 50 nM antisense oligonucleotide, lipofectin; format: cell-based; settings: Table 1, 50 nM, lipofectin, approximately 24 hours, relative to untreated control cells
Summary of the method: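 Percent inhibition, untreated cells as reference: derived from RNA collected about 24 hours post-transfection of 4,000-cell wells, with the human RTS 2927 primer probe set and adjustment for total RNA content (RIBOGREEN®).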

Substance	% Inhibition [%]
407909 (antisense e[5mC]*e[5mC]*eA*eT*e[5mC]*d[5mC]*dG*dA*dG*dT*dA*dG*d[5mC]*d[5mC]*dG*eG*e[5mC]*eA*e[5mC]*eA) [compound 407909]	77
407911 (antisense e[5mC]*e[5mC]*e[5mC]*e[5mC]*eT*dT*dG*d[5mC]*dA*dG*dG*dA*dG*dT*d[5mC]*e[5mC]*eT*eT*eG*e[5mC]) [compound 407911]	74
407912 (antisense e[5mC]*e[5mC]*e[5mC]*eG*eG*dT*dA*dG*dT*dG*dG*dG*dT*dG*dG*e[5mC]*eA*eT*eG*eT) [compound 407912]	46
407913 (antisense eG*eA*eT*eG*e[5mC]*d[5mC]*d[5mC]*dG*dT*d[5mC]*dA*dG*dG*dT*dA*e[5mC]*e[5mC]*eA*e[5mC]*eG) [compound 407913]	74
407914 (antisense e[5mC]*e[5mC]*eA*eG*e[5mC]*dT*dG*dA*d[5mC]*dG*dA*dT*dG*d[5mC]*d[5mC]*e[5mC]*eG*eT*e[5mC]*eA) [compound 407914]	82
407915 (antisense eG*eT*eT*eG*e[5mC]*dG*d[5mC]*dA*dG*d[5mC]*d[5mC]*d[5mC]*dT*dG*dG*e[5mC]*e[5mC]*e[5mC]*e[5mC]*eA) [compound 407915]	83
407916 (antisense eG*eT*eG*eG*e[5mC]*d[5mC]*d[5mC]*dA*d[5mC]*dG*dG*dT*dT*dG*d[5mC]*eG*e[5mC]*eA*eG*e[5mC]) [compound 407916]	53
407917 (antisense eA*e[5mC]*eA*e[5mC]*e[5mC]*d[5mC]*d[5mC]*dA*dA*dA*dG*dT*dG*dG*d[5mC]*e[5mC]*e[5mC]*eA*e[5mC]*eG) [compound 407917]	70
407918 (antisense e[5mC]*e[5mC]*eT*eG*eG*dT*dG*dT*dA*d[5mC]*dA*d[5mC]*d[5mC]*d[5mC]*d[5mC]*eA*eA*eA*eG*eT) [compound 407918]	72
407919 (antisense eT*e[5mC]*eG*eA*eT*dG*dT*dA*d[5mC]*dT*dG*dG*dG*dA*dG*eA*e[5mC]*e[5mC]*e[5mC]*eT) [compound 407919]	84
407920 (antisense eT*eG*eA*eG*e[5mC]*dG*d[5mC]*dA*dT*dG*dA*dG*d[5mC]*dT*dT*eT*eT*eG*e[5mC]*eA) [compound 407920]	65
407921 (antisense e[5mC]*e[5mC]*eA*e[5mC]*eA*dG*dG*d[5mC]*d[5mC]*dA*dG*dG*dG*d[5mC]*dT*eG*e[5mC]*eT*eG*eG) [compound 407921]	65
407922 (antisense eT*e[5mC]*eG*eA*e[5mC]*dG*d[5mC]*dA*dG*d[5mC]*d[5mC]*dT*dT*dG*dG*e[5mC]*eT*eT*eT*e[5mC]) [compound 407922]	82
407923 (antisense e[5mC]*eA*eG*eG*eA*d[5mC]*dA*dG*dT*dT*d[5mC]*dG*dA*d[5mC]*dG*e[5mC]*eA*eG*e[5mC]*e[5mC]) [compound 407923]	76
407924 (antisense eG*eA*eT*eT*eT*dG*dG*dT*dG*d[5mC]*d[5mC]*dA*dG*dG*dA*e[5mC]*eA*eG*eT*eT) [compound 407924]	68
407925 (antisense eG*eA*eA*eT*eA*dT*dA*dT*dG*dG*dG*dA*dT*dT*dT*eG*eG*eT*eG*e[5mC]) [compound 407925]	64
407926 (antisense e[5mC]*e[5mC]*eA*eG*eG*dA*d[5mC]*dA*dA*d[5mC]*d[5mC]*dT*dT*dG*dG*e[5mC]*eA*e[5mC]*eT*e[5mC]) [compound 407926]	79
407927 (antisense eA*eG*eG*eT*eA*dA*dG*dG*dA*dG*dG*d[5mC]*dT*d[5mC]*dA*eG*e[5mC]*eT*eG*eG) [compound 407927]	55
407928 (antisense e[5mC]*eT*eT*eG*eG*d[5mC]*dT*dG*dA*dA*dG*dG*dG*dA*dG*eG*eT*eA*eA*eG) [compound 407928]	55
407929 (antisense eG*e[5mC]*eA*eG*eA*dG*d[5mC]*dA*dG*d[5mC]*dA*dG*d[5mC]*d[5mC]*dT*eG*eA*eG*eG*e[5mC]) [compound 407929]	53
407930 (antisense e[5mC]*eA*eA*eT*eG*dA*dA*dG*dG*d[5mC]*dA*dG*dA*dG*d[5mC]*eA*eG*e[5mC]*eA*eG) [compound 407930]	70
407931 (antisense e[5mC]*eT*eT*e[5mC]*eA*dG*dA*dG*dG*dA*d[5mC]*dA*dG*d[5mC]*dA*e[5mC]*eA*e[5mC]*eA*eT) [compound 407931]	56
407932 (antisense eG*eA*eA*e[5mC]*e[5mC]*dA*dG*dA*dA*dA*dA*dG*dT*dG*dA*eG*eA*eG*e[5mC]*eT) [compound 407932]	55

Substance	% Inhibition [%]
407933 (antisense eT*eG*eA*eT*eA*dA*dT*dG*dG*dA*dT*dA*dA*dG*dA*eA*e[5mC]*e[5mC]*eA*eG) [compound 407933]	58
407934 (antisense e[5mC]*eT*eG*eA*eA*dG*dT*dG*dA*dA*dG*dA*dT*dG*dA*eT*eA*eA*eT*eG) [compound 407934]	45
407937 (antisense eG*eA*eA*eG*eG*dG*dA*dG*dA*dA*dA*dT*dA*d[5mC]*dA*eT*eT*eT*eG*eG) [compound 407937]	59
407938 (antisense e[5mC]*eA*e[5mC]*e[5mC]*e[5mC]*dA*dG*d[5mC]*dG*dA*dA*dG*dG*dG*dA*eG*eA*eA*eA*eT) [compound 407938]	60
407940 (antisense eT*eG*eT*eG*eA*dA*dG*d[5mC]*dT*dG*dG*dG*dA*dA*dG*e[5mC]*eA*eG*eG*eT) [compound 407940]	62
407941 (antisense eG*eA*eG*eA*e[5mC]*dG*d[5mC]*dA*dG*d[5mC]*d[5mC]*dG*dT*dT*dT*eA*eT*eT*eG*eT) [compound 407941]	65
407942 (antisense e[5mC]*eA*e[5mC]*eA*eG*dG*dT*dG*dT*dG*d[5mC]*dG*dG*dA*dG*eG*eA*eG*eA*e[5mC]) [compound 407942]	41
407943 (antisense eG*e[5mC]*eA*eG*eG*d[5mC]*dA*d[5mC]*d[5mC]*dA*d[5mC]*dA*dG*dG*dT*eG*eT*eG*e[5mC]*eG) [compound 407943]	34
407944 (antisense e[5mC]*e[5mC]*eA*eG*eT*dG*dG*dG*dT*dG*dG*d[5mC]*dA*dG*dG*e[5mC]*eA*e[5mC]*e[5mC]*eA) [compound 407944]	59
407945 (antisense eA*eA*eT*e[5mC]*eA*dT*dG*dG*dG*d[5mC]*dA*dA*d[5mC]*d[5mC]*d[5mC]*eA*eG*eT*eG*eG) [compound 407945]	56
407946 (antisense eT*e[5mC]*e[5mC]*eA*eA*dA*dA*dA*dT*dG*dA*dA*dT*d[5mC]*dA*eT*eG*eG*eG*e[5mC]) [compound 407946]	5
407950 (antisense eA*eG*e[5mC]*eT*eT*d[5mC]*d[5mC]*dA*dT*dG*dT*dG*dA*dG*dG*eG*eT*eT*e[5mC]*eA) [compound 407950]	58
407951 (antisense eA*eA*e[5mC]*eA*eG*d[5mC]*dT*dT*dT*dT*dG*dT*dT*dT*dT*eT*eA*eA*eA*eA) [compound 407951]	0
407952 (antisense eG*eG*eA*eT*e[5mC]*d[5mC]*dT*dG*dG*dG*dA*dG*d[5mC]*dT*dA*e[5mC]*eA*eG*e[5mC]*e[5mC]) [compound 407952]	41
407953 (antisense eA*e[5mC]*eA*eT*e[5mC]*d[5mC]*dA*dA*dT*dT*d[5mC]*d[5mC]*dA*d[5mC]*dA*eG*eG*eA*eT*e[5mC]) [compound 407953]	20
407954 (antisense e[5mC]*eA*eG*eG*eG*dA*dG*dA*dG*dA*dA*d[5mC]*dA*dT*d[5mC]*e[5mC]*eA*eA*eT*eT) [compound 407954]	39
407955 (antisense eT*eG*eT*eG*eA*dA*dA*dT*dA*dT*d[5mC]*dA*dT*dT*dG*eA*e[5mC]*eA*eA*eG) [compound 407955]	3
407956 (antisense eA*eA*e[5mC]*eT*eT*dG*d[5mC]*dA*dT*dT*dT*dA*dG*dT*dG*eA*eT*eG*e[5mC]*eG) [compound 407956]	19
407957 (antisense eG*eG*e[5mC]*e[5mC]*eT*dG*dG*dG*dA*dA*d[5mC]*dT*dT*dG*d[5mC]*eA*eT*eT*eT*eA) [compound 407957]	52
407958 (antisense eG*e[5mC]*e[5mC]*eG*eT*dG*d[5mC]*dT*dT*dG*d[5mC]*d[5mC]*dG*dG*dA*eG*eT*e[5mC]*eT*eG) [compound 407958]	58
407959 (antisense eG*e[5mC]*eA*eG*eG*dG*dA*dT*dG*dG*d[5mC]*dA*dT*d[5mC]*dG*eA*eG*eT*e[5mC]*e[5mC]) [compound 407959]	0
407960 (antisense eG*eT*eG*e[5mC]*e[5mC]*d[5mC]*dA*dG*dG*dA*d[5mC]*dG*dG*d[5mC]*d[5mC]*e[5mC]*eT*eG*e[5mC]*eA) [compound 407960]	53
407961 (antisense eA*eA*eG*eT*eA*dG*dA*dT*dG*dA*dT*dG*d[5mC]*d[5mC]*dT*eG*eA*eG*eT*eG) [compound 407961]	34
